According to article PMC11571207, “Stereorandomized Oncocins with Preserved Ribosome Binding and Antibacterial Activity” (Journal of Medicinal Chemistry, 2024):
Where two headings read alike, the source gives them in different places. No end group written: not given here.

Tests used:
[1] = test system: P. aeruginosa PA14 4.18 (pmrB); conditions: for MIC P. aeruginosa PA14 4.18 (pmrB), 12.5% MHB / MIC P. aeruginosa PA14 4.18 (pmrB), full MHB: polymyxin B resistant strain, 16–20 h at 37 °C; for MIC P. aeruginosa PA14 4.18 (pmrB), 12.5% MHB: 12.5% MHB pH 7.4; for MIC P. aeruginosa PA14 4.18 (pmrB), full MHB: full MHB pH 7.4; for MIC P. aeruginosa PA14 4.18: supplement CSV
P. aeruginosa ZEM-1A = test: microbe, parasite or virus in culture; conditions: for MIC P. aeruginosa ZEM-1A, 12.5% MHB / MIC P. aeruginosa ZEM-1A, full MHB: clinical isolate, 16–20 h at 37 °C, cells marked c: single measurement (in duplicates); for MIC P. aeruginosa ZEM-1A, 12.5% MHB: 12.5% MHB pH 7.4; for MIC P. aeruginosa ZEM-1A, full MHB: full MHB pH 7.4; for MIC P. aeruginosa ZEM-1A: supplement CSV, 12.5% MH pH 7.4
Protocol: (§1) Minimum inhibitory concentration assay
(§2) Antimicrobial activity was assayed against P. aeruginosa PAO1, K. pneumoniae NCTC418, E. coli W3110, A. baumannii ATCC 19606, methicillin-resistant S. aureus COL (MRSA), and for selected peptides on P. aeruginosa PA14 and the polymyxin-B-resistant derivative PA14 2P4, as well as the clinical isolates ZEM-1A and ZEM9A, K. pneumoniae OXA-48, S. aureus Newman, Enterobacter cloacae and Burkholderia cenocepacia. The minimal inhibitory concentration (MIC) was determined by using broth microdilution method. A colo ny of bacteria was picked and grown in Luria-Bertani (LB) medium overnight at 37°C. For E. coli BW25113 sbmA::kan the medium was supplemented with 25 mg/L of kanamycin. The next day, the culture was then regrown in LB medium to log phase (OD600 = 0.6 to 0.8), which lasted approximately 4 h, and diluted to an OD600 of 0.022 in the desired medium. Stock solutions of 1 mg/mL of the samples were prepared in sterilized milliQ water and diluted to the beginning concentration of 64 μg/mL in 300 μL Mueller Hinton (MH)-medium. The diluted samples were added to first well of 96-well microtiter plate (TPP, untreated, Faust Laborbedarf, AG, Schaffhausen) and diluted serially by ½. Finally, 4 μL of the bacterial suspension was inoculated into the sample solutions (150 μL/well) with a final inoculation of about 5∙10^5 CFU/mL. The plates were then incubated at 37°C for 15-18h. For each assay, sterility (broth only) and growth control (broth with bacterial inoculum, without antibiotics) were checked with two columns in the plate. The next day, 15 μL of 3-(4,5-dimethylthiazol-2-yl)-2,5-diphenyltetrazolium bromide (MTT) was added to each well of the plate, such a way that MIC was defined as the lowest concentration of the peptide that inhibited visible growth of the tested

K. pneumoniae OXA-48 = test: microbe, parasite or virus in culture; conditions: for MIC K. pneumoniae OXA-48, 12.5% MHB / MIC K. pneumoniae OXA-48, full MHB: carbapenem-resistant, 16–20 h at 37 °C; for MIC K. pneumoniae OXA-48, 12.5% MHB: 12.5% MHB pH 7.4; for MIC K. pneumoniae OXA-48, full MHB: full MHB pH 7.4; for MIC K. pneumoniae OXA-48: supplement CSV
Protocol: as §1, §2

[2] = test system: P. aeruginosa PA14 2P4 (pmrB); test: microbe, parasite or virus in culture; conditions: for MIC P. aeruginosa PA14 2P4 (pmrB), 12.5% MHB / MIC P. aeruginosa PA14 2P4 (pmrB), full MHB: polymyxin B resistant strain, 16–20 h at 37 °C; for MIC P. aeruginosa PA14 2P4 (pmrB), 12.5% MHB: 12.5% MHB pH 7.4; for MIC P. aeruginosa PA14 2P4 (pmrB), full MHB: full MHB pH 7.4; for MIC P. aeruginosa PA14 2P4: supplement CSV
Protocol: as §1, §2

P. aeruginosa PA14 = test: microbe, parasite or virus in culture; conditions: for MIC P. aeruginosa PA14, 12.5% MHB: 12.5% MHB pH 7.4; for MIC P. aeruginosa PA14, 12.5% MHB / MIC P. aeruginosa PA14, full MHB: 16–20 h at 37 °C, two different duplicate MIC determinations; for MIC P. aeruginosa PA14, full MHB: full MHB pH 7.4; for MIC P. aeruginosa PA14: supplement CSV
Protocol: as §1, §2

P. aeruginosa ZEM9A = test: microbe, parasite or virus in culture; conditions: for MIC P. aeruginosa ZEM9A, 12.5% MHB / MIC P. aeruginosa ZEM9A, full MHB: clinical isolate, 16–20 h at 37 °C; for MIC P. aeruginosa ZEM9A, 12.5% MHB: 12.5% MHB pH 7.4; for MIC P. aeruginosa ZEM9A, full MHB: full MHB pH 7.4; for MIC P. aeruginosa ZEM9A: supplement CSV
Protocol: as §1, §2

E. cloacae = test: microbe, parasite or virus in culture; conditions: for MIC E. cloacae, 12.5% MHB: 12.5% MHB pH 7.4; for MIC E. cloacae, 12.5% MHB / MIC E. cloacae, full MHB: 16–20 h at 37 °C; for MIC E. cloacae, full MHB: full MHB pH 7.4; for MIC E. cloacae: supplement CSV
Protocol: as §1, §2

Sequence: VDKPPYLPRPRPPRRIYNR [sr5Cterm-Onc] (VDKPPYLPRPRPPRRIYNR-NH2; also: residues 15-19 stereorandomized (1:1 L/D mixture))
- MIC P. aeruginosa PA14 4.18 (pmrB), 12.5% MHB [1]: 8 µg/mL
- MIC P. aeruginosa PA14 4.18 (pmrB), full MHB [1]: 64 µg/mL
- MIC P. aeruginosa PA14 4.18 ([1]; 12.5% MH pH 7.4): 8 µg/mL
- MIC P. aeruginosa PA14 4.18 ([1]; full MH pH 7.4): 64 µg/mL
- MIC P. aeruginosa ZEM-1A, 12.5% MHB (P. aeruginosa ZEM-1A): 4 to 8 µg/mL
- MIC P. aeruginosa ZEM-1A, full MHB (P. aeruginosa ZEM-1A): 64 µg/mL
- MIC P. aeruginosa ZEM-1A (P. aeruginosa ZEM-1A): 4 to 8 µg/mL
- MIC K. pneumoniae OXA-48, 12.5% MHB (K. pneumoniae OXA-48): 4 µg/mL
- MIC K. pneumoniae OXA-48, full MHB (K. pneumoniae OXA-48): 32 µg/mL
- MIC K. pneumoniae OXA-48 (K. pneumoniae OXA-48; 12.5% MH pH 7.4): 4 µg/mL
- MIC K. pneumoniae OXA-48 (K. pneumoniae OXA-48; full MH pH 7.4): 32 µg/mL
- MIC P. aeruginosa PA14 2P4 (pmrB), 12.5% MHB [2]: 2 µg/mL
- MIC P. aeruginosa PA14 2P4 (pmrB), full MHB [2]: > 64 µg/mL
- MIC P. aeruginosa PA14 2P4 ([2]; 12.5% MH pH 7.4): 2 µg/mL
- MIC P. aeruginosa PA14 2P4 ([2]; full MH pH 7.4): >64 µg/mL
- MIC P. aeruginosa PA14, 12.5% MHB (P. aeruginosa PA14): 8 µg/mL
- MIC P. aeruginosa PA14, full MHB (P. aeruginosa PA14): > 64 µg/mL
- MIC P. aeruginosa PA14 (P. aeruginosa PA14; 12.5% MH pH 7.4): 8 µg/mL
- MIC P. aeruginosa PA14 (P. aeruginosa PA14; full MH pH 7.4): >64 µg/mL
- MIC P. aeruginosa ZEM9A, 12.5% MHB (P. aeruginosa ZEM9A): 8 µg/mL
- MIC P. aeruginosa ZEM9A, full MHB (P. aeruginosa ZEM9A): > 64 µg/mL
- MIC P. aeruginosa ZEM9A (P. aeruginosa ZEM9A; 12.5% MH pH 7.4): 8 µg/mL
- MIC P. aeruginosa ZEM9A (P. aeruginosa ZEM9A; full MH pH 7.4): >64 µg/mL
- MIC E. cloacae, 12.5% MHB (E. cloacae): 1 µg/mL
- MIC E. cloacae, full MHB (E. cloacae): 32 µg/mL
- MIC E. cloacae (E. cloacae; 12.5% MH pH 7.4): 1 µg/mL
- MIC E. cloacae (E. cloacae; full MH pH 7.4): 32 µg/mL

Sequence: VDKPPYLPRPRPPRRIYNR [sr8Cterm-Onc] (VDKPPYLPRPRPPRRIYNR-NH2; also: residues 12-19 stereorandomized (1:1 L/D mixture))
- MIC P. aeruginosa PA14 4.18 (pmrB), 12.5% MHB [1]: 8 µg/mL
- MIC P. aeruginosa PA14 4.18 (pmrB), full MHB [1]: 64 µg/mL
- MIC P. aeruginosa PA14 4.18 ([1]; 12.5% MH pH 7.4): 8 µg/mL
- MIC P. aeruginosa PA14 4.18 ([1]; full MH pH 7.4): 64 µg/mL
- MIC P. aeruginosa ZEM-1A, 12.5% MHB (P. aeruginosa ZEM-1A): 4 to 8 µg/mL
- MIC P. aeruginosa ZEM-1A, full MHB (P. aeruginosa ZEM-1A): 64 µg/mL
- MIC P. aeruginosa ZEM-1A (P. aeruginosa ZEM-1A): 4 to 8 µg/mL
- MIC K. pneumoniae OXA-48, 12.5% MHB (K. pneumoniae OXA-48): 16 µg/mL
- MIC K. pneumoniae OXA-48, full MHB (K. pneumoniae OXA-48): 32 µg/mL
- MIC K. pneumoniae OXA-48 (K. pneumoniae OXA-48; 12.5% MH pH 7.4): 16 µg/mL
- MIC K. pneumoniae OXA-48 (K. pneumoniae OXA-48; full MH pH 7.4): 32 µg/mL
- MIC P. aeruginosa PA14 2P4 (pmrB), 12.5% MHB [2]: 2 µg/mL
- MIC P. aeruginosa PA14 2P4 (pmrB), full MHB [2]: > 64 µg/mL
- MIC P. aeruginosa PA14 2P4 ([2]; 12.5% MH pH 7.4): 2 µg/mL
- MIC P. aeruginosa PA14 2P4 ([2]; full MH pH 7.4): >64 µg/mL
- MIC P. aeruginosa PA14, 12.5% MHB (P. aeruginosa PA14): 8 µg/mL
- MIC P. aeruginosa PA14, full MHB (P. aeruginosa PA14): > 64 µg/mL
- MIC P. aeruginosa PA14 (P. aeruginosa PA14; 12.5% MH pH 7.4): 8 µg/mL
- MIC P. aeruginosa PA14 (P. aeruginosa PA14; full MH pH 7.4): >64 µg/mL
- MIC P. aeruginosa ZEM9A, 12.5% MHB (P. aeruginosa ZEM9A): 8 µg/mL
- MIC P. aeruginosa ZEM9A, full MHB (P. aeruginosa ZEM9A): > 64 µg/mL
- MIC P. aeruginosa ZEM9A (P. aeruginosa ZEM9A; 12.5% MH pH 7.4): 8 µg/mL
- MIC P. aeruginosa ZEM9A (P. aeruginosa ZEM9A; full MH pH 7.4): >64 µg/mL
- MIC E. cloacae, 12.5% MHB (E. cloacae): 0.5 µg/mL
- MIC E. cloacae, full MHB (E. cloacae): > 64 µg/mL
- MIC E. cloacae (E. cloacae; 12.5% MH pH 7.4): 0.5 µg/mL
- MIC E. cloacae (E. cloacae; full MH pH 7.4): >64 µg/mL
